{"source": "patent US11806344B2", "about": "“Pharmaceutical composition comprising mineralocorticoid receptor antagonist and use thereof” (priority 2016, dated 2023)", "format_in_all_cases": "in vivo, human", "key": {"[1]": {"test": "Safety, tolerability and pharmacokinetics in healthy subjects, single dose (Example 7)", "settings": "human, plasma, oral", "method": "(§1) Five groups of healthy subjects were given capsules at doses of 0.5 mg (1 capsule, 0.5 mg of Compound I per capsule), 1.0 mg (2 capsules, 0.5 mg of Compound I per capsule), 2.5 mg (1 capsule, 2.5 mg of Compound I per capsule), 10 mg (1 capsule, 10 mg of Compound I per capsule), and 30 mg (3 capsules, 10 mg of Compound I per capsule), each group containing 8 subjects. The drug administration was done only once.\n(§2) The capsules mentioned above were the ones prepared in Example 2, i.e., the capsules of Capsule formulation 3 (0.5 mg of Compound I per capsule), Capsule formulation 4 (2.5 mg of Compound I per capsule), and Capsule formulation 5 (10 mg of Compound I per capsule).\n(§3) Plasma samples were collected to measure plasma drug concentration, and the pharmacokinetic parameters were analyzed using the non-compartment model. Serum samples were collected to measure serum potassium levels."}, "healthy subjects": {"test_system": "healthy subjects", "test": "Safety, tolerability and pharmacokinetics in healthy subjects, single dose (Example 7)", "settings": "single dose 0.5 to 30 mg/day", "method": "as §1, §2, §3"}, "[2]": {"test": "Safety, tolerability and pharmacokinetics in healthy subjects, multiple doses (Example 8)", "settings": "human, plasma, oral, healthy subjects, 14 days, read-out: average steady-state AUC0-24 (AUCtau)", "method": "Two groups of healthy subjects were given capsules once a day at daily doses of 2.5 mg (1 capsule for each administration, 2.5 mg of Compound I per capsule), and 5.0 mg (2 capsules for each administration, 2.5 mg of Compound I per capsule), respectively, each group containing 6 subjects. The administration continued for 14 consecutive days. The capsules used in this study were of Capsule formulation 4 prepared in Example 2.\nas §3"}, "[3]": {"test": "Safety, tolerability and pharmacokinetics in patients having chronic kidney disease (Example 9)", "settings": "human, plasma, oral, CKD patients", "excerpt": "(§4) The patients in this example were those having chronic kidney disease with symptoms of renal failure, proteinuria, acute kidney injury, glomerular nephritis, renal cyst, urinary frequency, renal calculus, obstructive uropathy, and etc. These patients also had other diseases or implications such as diabetes mellitus, hyperlipidemia, hypercholesterolemia, hypertension, peripheral vascular diseases, coronary artery disease, and etc.\n(§5) These patients continued to take the medications that they had prior to the present clinical trial, the medications being, for example, angiotensin converting enzyme inhibitors, such as Lisinopril, Benazepril, Enalapril, and Enalapril Maleate; angiotensin II receptor blockers, such as Valsartan and Losartan; calcium channel blockers, such as Amlodipine, and Nifedipine; diuretics, such as Furosemide; beta-receptor blockers, such as Metoprolol succinate, Metoprolol tartrate, Carvedilol, and Atenolol; and antilipemic drugs, such as Simvastatin, Atorvastatin, Fenofibrate, Pravastatin, and Rosuvastatin.\n(§6) In this example, the administration dose referred to the amount of Compound I, although the pharmaceutical composition was administered. Two groups of subjects were administered once a day for 56 consecutive days at the daily doses of 0.5 mg (1 capsule for each administration, 0.5 mg of Compound I per capsule) and 2.5 mg (1 capsule for each administration, 2.5 mg of Compound I per capsule), respectively, with 6 subjects for the 0.5 mg/day dose group and also 6 for the 2.5 mg/day dose group. The capsules used here were the capsules prepared in Example 2, i.e., the capsules of Capsule formulation 3 (the capsule with 0.5 mg of Compound I), and Capsule formulation 4 (the capsule containing 2.5 mg of Compound I).\nas §3"}, "[4]": {"test_system": "patients having chronic kidney disease", "test": "Safety, tolerability and pharmacokinetics in patients having chronic kidney disease (Example 9)", "settings": "CKD patients; for UACR decreased: at the 8th week; for Predicated AUCtau: predicted from the 0.5 mg/day group", "excerpt": "as §4, §5, §6, §3"}}, "note": "“Also recorded” adds a separate entry of the source. Like-named read-outs stand apart in the source and are kept apart here.", "data": [{"compound": "N#Cc1ccc(N2N=C3c4ccc(C(=O)N5CCC(O)CC5)nc4CC[C@@H]3[C@@H]2C2CCCC2)cc1Cl", "note": "[Compound I, 2-chloro-4-[(3S,3aR)-3-cyclopentyl-7-(4-hydroxylpiperidine-1-carbonyl)-3,3a,4,5-tetrahydro-2H-pyrazolo[3,4-f]quinolin-2-yl]benzonitrile]", "values": [{"measurement": "half-life", "setting": "[1]; single dose 0.5 mg", "result": 61.5, "unit": "h"}, {"measurement": "AUC(0-t)", "setting": "[1]; single dose 0.5 mg capsule, read-out: AUC0-24", "result": 162, "unit": "ng·h/mL"}, {"measurement": "half-life", "setting": "[1]; single dose 1.0 mg", "result": 60.9, "unit": "h"}, {"measurement": "AUC(0-t)", "setting": "[1]; single dose 1.0 mg capsules, read-out: AUC0-24", "result": 397, "unit": "ng·h/mL"}, {"measurement": "half-life", "setting": "[1]; single dose 2.5 mg", "result": 53.3, "unit": "h"}, {"measurement": "AUC(0-t)", "setting": "[1]; single dose 2.5 mg capsule, read-out: AUC0-24", "result": 640, "unit": "ng·h/mL"}, {"measurement": "half-life", "setting": "[1]; single dose 10 mg", "result": 52.8, "unit": "h"}, {"measurement": "AUC(0-t)", "setting": "[1]; single dose 10 mg capsule, read-out: AUC0-24", "result": 3080, "unit": "ng·h/mL"}, {"measurement": "half-life", "setting": "[1]; single dose 30 mg", "result": 73.9, "unit": "h"}, {"measurement": "AUC(0-t)", "setting": "[1]; single dose 30 mg capsules, read-out: AUC0-24", "result": 5020, "unit": "ng·h/mL"}, {"measurement": "half-life", "setting": "[1]; single dose 0.5 to 30 mg/day", "result": "~60", "unit": "h"}, {"measurement": "AUC(0-t)", "setting": "[1]; single dose 0.5 to 30 mg/day, read-out: AUC0-24 (range over dose groups)", "result": "162 to 5020", "unit": "ng·h/mL"}, {"measurement": "serum potassium level (observation)", "setting": "healthy subjects", "result": "no elevated serum potassium level was observed"}, {"measurement": "AUC(0-t)", "setting": "[2]; 2.5 mg/day, multiple doses 2.5 mg/day", "result": "2860 ± 821", "unit": "ng·h/mL"}, {"measurement": "AUC(0-t)", "setting": "[2]; 5 mg/day, multiple doses 5.0 mg/day", "result": "6380 ± 1030", "unit": "ng·h/mL"}, {"measurement": "AUC", "setting": "[3]; 0.5 mg, mean AUC plus the standard deviation at 0.5 mg, read-out: upper limit of AUC that is safe", "result": 885, "unit": "ng·h/mL"}, {"measurement": "AUC", "setting": "[3]; 0.5 mg, mean AUC plus twice the standard deviation at 0.5 mg, read-out: upper limit of AUC that is safe", "result": 1120, "unit": "ng·h/mL"}, {"measurement": "AUC", "setting": "[3]; 0.5 mg/day, administered for one day at 0.5 mg/day, read-out: steady-state AUCtau", "result": "≥ 106", "unit": "ng·h/mL"}, {"measurement": "AUC", "setting": "[3]; 0.5 mg/day, multiple doses 0.5 mg/day, read-out: average steady-state AUCtau", "result": "652 ± 232", "unit": "ng·h/mL"}, {"measurement": "AUC", "setting": "[3]; 2.5 mg, mean AUC plus the standard deviation at 2.5 mg, read-out: upper limit of AUC that is safe", "result": 2890, "unit": "ng·h/mL"}, {"measurement": "AUC", "setting": "[3]; 2.5 mg, mean AUC plus twice the standard deviation at 2.5 mg, read-out: upper limit of AUC that is safe", "result": 3170, "unit": "ng·h/mL"}, {"measurement": "AUC", "setting": "[3]; 2.5 mg/day, multiple doses 2.5 mg/day, read-out: average safe steady-state AUCtau", "result": "2610 ± 280", "unit": "ng·h/mL"}, {"measurement": "UACR decreased", "setting": "[4]; 0.5 mg/day", "result": 58.9, "unit": "%"}, {"measurement": "UACR decreased", "setting": "[4]; 2.5 mg/day", "result": 50.7, "unit": "%"}, {"measurement": "UACR decreased compared to the baseline", "setting": "[4]; administered for one day at 0.5 mg/day", "result": "≥ 30.5", "unit": "%"}, {"measurement": "AUC individual variation: highest AUC vs lowest AUC subject", "setting": "[4]; capsule, multiple doses 2.5 mg daily", "result": 2.27, "unit": "times"}, {"measurement": "AUC individual variation: highest AUC vs lowest AUC subject", "setting": "[4]; capsules, multiple doses 0.5 mg daily", "result": 2.14, "unit": "times"}, {"measurement": "Predicated AUCtau", "setting": "[4]; dose 0.1 mg", "result": 130.5, "unit": "ng·h/mL"}, {"measurement": "Predicated AUCtau", "setting": "[4]; dose 0.15 mg", "result": 195.8, "unit": "ng·h/mL"}, {"measurement": "Predicated AUCtau", "setting": "[4]; dose 0.2 mg", "result": 261, "unit": "ng·h/mL"}, {"measurement": "Predicated AUCtau", "setting": "[4]; dose 0.25 mg", "result": 326.3, "unit": "ng·h/mL"}, {"measurement": "Predicated AUCtau", "setting": "[4]; dose 0.3 mg", "result": 391.5, "unit": "ng·h/mL"}, {"measurement": "Predicated AUCtau", "setting": "[4]; dose 1.0 mg", "result": 1305, "unit": "ng·h/mL"}, {"measurement": "Predicated AUCtau", "setting": "[4]; dose 2.0 mg", "result": 2610, "unit": "ng·h/mL"}, {"measurement": "Predicated AUCtau", "setting": "[4]; dose 2.5 mg", "result": 3262.5, "unit": "ng·h/mL"}, {"measurement": "serum potassium level (observation)", "setting": "[4]; multiple doses 0.5 mg/day", "result": "no elevated serum potassium level was observed"}, {"measurement": "blood pressures and UACR (observation)", "setting": "[4]; multiple doses 0.5 mg/day or 2.5 mg/day", "result": "significantly decrease in blood pressures and urine albumin-to-creatinine ratio (UACR)"}, {"measurement": "serum potassium level (observation)", "setting": "[4]; multiple doses 2.5 mg/day", "result": "serum potassium levels were elevated; also recorded: mild increase of the serum potassium level was observed in one subject; also recorded: In one subject, the serum potassium level slightly increased"}]}]}
